Source: patent US20070142396A1, “Treatment of pain with 1-[3-[4-(3-chlorophenyl)-1-piperazinyl]propyl]-5-methoxy-3,4-dihydro-2(1H)-quinolone or salt thereof” (Vela Pharmaceuticals, Inc., priority 2005, published 2007)

Experiments:
[1] = system: rats with L5 spinal nerve ligation (SNL model); assay: Spinal nerve ligation (L5) neuropathic pain model, mechanical threshold with von Frey filaments (Example 4); assay type: in vivo, rat; conditions: gabapentin 50 mg/kg i.p.
From the text: A total of 18 Sprague-Dawley (CD sub-strain) young adult (weight: 150-175 g) male rats were purchased from Harlan Sprague Dawley Company (Indianapolis, Ind.), Alabama colony. The rats were kept three per cage and had free access to food and water. Animals were kept in a room with a reversed light-dark cycle (light: 8:00 PM-8:00 AM) for 1 week before experimental manipulations. Ten rats were allocated to the present study. Eight rats were allocated to the study of Example 5, below.
(§1) The spinal nerve ligation (SNL) model of neuropathic pain was produced in all rats as described by Kim and Chung (Pain, 50, 355-363, 1992). Briefly, under gaseous anesthesia using halothane (3% for induction and 1.5% for maintenance) in oxygen, the left L5 spinal nerve was exposed by removing the paraspinal muscles and the transverse process of the L6 vertebra. The very proximal portion of the L5 spinal nerve was tightly ligated with 6-0 silk suture. The wounds were closed and anesthesia was discontinued. Rats were kept on a heated blanket until they had completely recovered from anesthesia.
OPC-14523 was dispersed in 0.5% tragacanth in distilled water at 20 mg/ml. It was administered as a oral injection in a dose of 100 mg/kg body weight. Gabapentin was prepared at 10 mg/ml in saline and was administered at 50 mg/kg body weight i.p. Gabapentin is a drug that was originally developed as an anticonvulsant but is now widely used as an analgesic for neuropathic pain (Abdi et al., Anesthesia & Analgesia 87:1360-1366 (1998)).
Ten rats were utilized in a Latin-square-design study comparing the activity of OPC-14523 and other compounds against neuropathic pain. Behavioral tests were conducted twice (1 day and 1 hour) before, as well as 1 and 4 days after, the neuropathic surgery. […] The ten rats were randomly divided into five groups of two rats each. […]
This procedure was repeated five times. […] The result was that all ten animals received each of the indicated five compounds in random order and then had mechanical thresholds determined at the indicated times.
Behavioral tests were conducted in a non-blind fashion. The foot withdrawal threshold to mechanical stimuli applied to the paw (mechanical threshold) was measured, as an indicator of mechanical sensitivity of the affected paw. The foot withdrawal threshold was measured using von Frey filaments. […] The mechanical thresholds were measured by using the “up-and-down” method (Chaplan et al., J. Neurosci. Methods 53(1):55-63, 1994), following the procedures described in previous studies (Park et al., Pain 87(2):171-179, 2000; Xie et al., J. Pain 2(5):270-278, 2001; Baik et al., J. Pain 4:212-221, 2003). […]

[2] = system: rats with L5 spinal nerve ligation (SNL model); assay: Spinal nerve ligation (L5) neuropathic pain model, von Frey filaments, dose range (Example 5); assay type: in vivo, rat; conditions: gabapentin 100 mg/kg p.o.
From the text: as §1
Behavioral tests were conducted in a non-blind fashion. The foot withdrawal threshold to mechanical stimuli applied to the paw (mechanical threshold) was measured, as an indicator of mechanical sensitivity of the affected paw. The foot withdrawal threshold was measured using von Frey filaments. It is generally thought that von Frey filaments are more sensitive than electronic von Frey probes for measuring tactile stimulation. The mechanical thresholds were measured by using the “up-and-down” method (Chaplan et al., J. Neurosci. Methods 53(1):55-63, 1994), following the procedures described in previous studies (Park et al., Pain 87(2):171-179, 2000; Xie et al., J. Pain 2(5):270-278, 2001; Baik et al., J. Pain 4:212-221, 2003). In brief, rats were placed in a transparent plastic box on a metal wire mesh floor. To determine the threshold stiffness required for 50% paw withdrawal, a series of eight von Frey filaments with approximately equal logarithmic incremental (0.22) von Frey values (3.65, 3.87, 4.10, 4.31, 4.52, 4.74, 4.92, and 5.16) were used. Von Frey (VF) values are logarithmically related to gram (g) values (VF=log (10,000×g)). The chosen von Frey values are therefore equivalent to 0.45, 0.74, 1.26, 2.04, 3.31, 5.50, 8.32, and 14.45 in gram value, respectively. Starting with filament 4.31, von Frey filaments were applied perpendicularly to the ventral surface of the proximal part of the third or fourth toe for 2-3 seconds. Whenever a positive response to a stimulus occurred (paw withdrawal), the next smaller von Frey hair was applied. Whenever a negative response occurred, the next larger one was applied. The test was continued until the response of six stimuli after the first change in response had been obtained or the test had reached either end of the spectrum of the von Frey set.
The 50% threshold value was then calculated using Dixon's formula (Dixon, Ann. Rev. Phar. Tox. 20:441-462, 1980): 50% threshold=X+kd, where X is the value of the final von Frey hair used (in log units), k is the tabular value for the pattern of positive/negative responses, and d is the mean difference between stimuli in log units (0.22). In the cases where continuous positive or negative responses were observed all the way out to the end of the stimulus spectrum, values of 3.54 or 5.27 were assigned, respectively, by assuming a value of (−/+) 0.5 for k in these cases (Dixon, supra, 1980). Outcome of behavioral data were expressed as von Frey values (maximum range from 3.54 to 5.27) and plotted in a linear scale.
Data were expressed as the mean±standard errors of mean (SEM). Differences in mechanical thresholds at various times after injections were tested using two-way (time and group factors) analysis of variance (ANOVA), followed by the Duncan's post-hoc test for multiple comparisons. Statistical analyses were done using the SAS® software program (SAS Institute Inc, Cary, N.C.). Two-tailed p-values<0.05 were considered to be significant.
This experiment was conducted on 8 rats in a Latin-square design examining a dose response of OPC-14523. Gabapentin was prepared at 10 mg/ml in 0.5% tragacanth and administered at 100 mg/kg p.o. Behavioral tests were conducted in a blind fashion twice (1 day and 1 hour) before as well as 1 and 4 days after the neuropathic surgery. […] These 8 rats were randomly divided into 6 groups of 1-2 rats. […]

## NCC1(CC(=O)O)CCCCC1 [Gabapentin, gabapentin, reference compound]
[1]
  level of mechanical threshold increase relative to threshold prior to ligation: about half of the mechanical threshold observed prior to the ligation
[1]; 0.5-6 hours
  effect on mechanical threshold of the lesioned paw for foot withdrawals: significantly increased
[2]
  effect on mechanical threshold of the lesioned paw for foot withdrawals: significant increase
